From patent US20200215099A1, “NON-ANTICOAGULANT SULFATED OR SULFONATED POLYSACCHARIDES” (Baxalta Incorporated, priority 2012, published 2020)
≈ marks a conversion by molar mass, not a printed value. Entries after “also recorded” stand apart in the source; their conditions may differ. Like-named read-outs stand apart in the source and are kept apart here. One block for each molecule: values may come before it.

How the values were obtained:
[1] = system: FVIII-inhibited plasma; experiment: Thrombin generation assay (CAT) in FVIII-inhibited plasma; assay type: biochemical, human; conditions: for EC50: half maximal thrombin peak
Procedure: The procoagulant activity of the sulfated polysaccharides was assessed by the Thrombin Generation Assay (TGA). The influence of each sulfated polysaccharide on thrombin generation was measured in duplicate via CAT in a Fluoroskan Ascent® reader (Thermo Labsystems, Helsinki, Finland; filters 390 nm excitation and 460 nm emission) following the slow cleavage of the fluorogenic substrate Z-Gly-GIy-Arg-AMC (Hemker H C. Pathophysiol Haemost Thromb (2003) 33(4):15). To each well of a 96 well microplate (Immulon 2HB, clear U-bottom; Thermo Electron) 80 μL of pre-warmed (37° C.) goat anti FVIII antibody treated human normal plasma pool was added. For triggering thrombin generation by tissue factor, 104 of PPP reagent containing a certain amount of recombinant human tissue factor (rTF) and phospholipid vesicles composed of phosphatidylserine, phosphatidylcholine and phosphatidylethanolamine (final concentration of 4 μM) (Thrombinoscope BV, Maastricht, The Netherlands) was added. For studying the procoagulant activity of sulfated polymers a final TF concentration of 1 pM was used to provide FVIII and TFPI sensitivity of the test system. Just prior to putting the plate into the pre-warmed (37° C.) reader, 10 µL of test or reference sample or calibrator compound was added. Thrombin generation was started by dispensing 204 of FluCa reagent (Thrombinoscope BV, Maastricht, The Netherlands) containing fluorogenic substrate and Hepes buffered CaCl2 (100 mM) into each well and fluorescence intensity was recorded at 37° C.
The parameters of the resulting thrombin generation curves were calculated using the Thrombinoscope™ software (Thrombinoscope BV, Maastricht, The Netherlands) and thrombin calibrator to correct for inner filter and substrate consumption effects (Hemker H C, Pathophysiol Haemost Thromb (2003) 33(4):15). With the thrombin calibrator as a reference, the molar concentration of thrombin in the test wells was calculated by the software. The thrombin amounts at the peak and peak times of each thrombin generation curve (peak thrombin, nM) were plotted against sulfated polysaccharide concentrations resulting in the procoagulant profile of these compounds. The thrombin generation assay results are illustrated in the figures appended hereto. From these plots half maximal effective concentrations (EC50) values are determined using a sigmoidal curve fit. The EC50 represents the concentration at which the half maximal thrombin peak is reached.

[2] = system: normal human plasma; experiment: Activated partial thromboplastin time assay (aPTT); assay type: biochemical; conditions: for Ratio aPTT/CAT: 50% increase clotting time / CAT EC50; for 50% Increase Clotting Time: concentration where clotting time is 50% increased over normal plasma control; for anticoagulant activity (in words): aPTT compared with procoagulant CAT concentration
Procedure: The aPTT assay was performed to study anticoagulant activities of NASP. In brief, 50 μL of thawed normal human plasma pool (George King Biomedical, Overland Park, Kans.) was mixed with 5 μL of NASP sample (0-60 μg/mL final plasma concentration). NASPs were diluted in imidazole buffer (3.4 g/L imidazole; 5.85 g/L NaCl, pH 7.4) containing 1% albumin (Baxter, Austria). After addition of 50 μL aPTT reagent (STA APTT, Roche) the samples were incubated for 4 min at 37° C. Clotting was initiated by 50 μL of 25 mM CaCl2 solution (Baxter, Austria) and recorded for up to 5 min. All pipetting steps and clotting time measurements were carried out with an ACL Pro Elite (Instrumentation Laboratory, Bedford, Mass.) instrument. Samples were run in duplicate.
For data analysis, clotting time is plotted against the NASP concentration. Concentrations where the clotting time is 50% increased over the normal plasma control are determined using a linear curve fit.

[3] = target: T1, full-length TFPI (Homo sapiens, UniProt P10646); experiment: Dilute prothrombin time assay with added TFPI (TFPI-dPT); assay type: biochemical; conditions: for EC50 TFPI-dPT: normal human plasma with rec. FL-TFPI; for reversal of the effect of rec. FL-TFPI (in words): normal human plasma
T1 construct: 0.5 μg/mL full-length TFPI (aa 1-276, constitutively produced by SKHep1); made in house; host or cells: SKHep1
T1 sequence (P10646 29-304): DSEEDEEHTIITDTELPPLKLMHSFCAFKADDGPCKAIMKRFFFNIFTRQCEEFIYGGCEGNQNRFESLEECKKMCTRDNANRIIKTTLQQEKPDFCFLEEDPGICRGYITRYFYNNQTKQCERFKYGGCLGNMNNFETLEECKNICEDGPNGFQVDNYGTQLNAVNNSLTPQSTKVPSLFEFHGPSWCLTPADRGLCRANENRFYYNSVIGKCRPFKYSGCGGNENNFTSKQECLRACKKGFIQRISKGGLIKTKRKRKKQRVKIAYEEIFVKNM
Procedure: A dilute prothrombin time assay with added TFPI (TFPI-dPT) was used to evaluate the TFPI-inhibiting effect of the different NASPs. Pooled normal human plasma (George King Biomedical, Overland Park, Kans.) was pre-incubated with 0.5 μg/mL full-length TFPI (aa 1-276, constitutively produced by SKHep1) and the respective NASP (0-5 μg/mL) for 15 min at RT. TF reagent TriniClot PT Excel S (Trinity Biotech, Wicklow, Ireland), diluted in Hepes-buffered saline 1:200 with 0.5% BSA was added to the plasma samples on an ACL Pro Elite hemostasis analyzer (Instrumentation Laboratory, Bedford, Mass.). Clotting was initiated with 25 mM CaCl2). The volume ratio of plasma:TF:CaCl2 was 1:1:1.
For data analysis, TFPI-dPT is plotted against the log concentration. Half maximal effective concentrations (EC50) values are determined using a sigmoidal curve fit.

[4] = system: FVIII-inhibited human whole blood; experiment: Rotation thromboelastometry (ROTEM); conditions: ROTEM, 0.044 pM TF
Procedure: NASPs (0.4-11 μg/mL) were studied in fresh citrated human whole blood by rotation thromboelastometry (ROTEM), an assay that allows continuous visco-elastic assessment of whole blood clot formation and firmness. Blood was incubated with anti-human FVIII plasma raised in goat (Baxter Bioscience, Austria) at 50 BU/mL to simulate hemophilic conditions. Clotting was triggered with 0.044 pM tissue factor (TF) (PRP reagent, Thrombinoscope BV) in the presence of 40 μg/mL CTI (Haematologic Technologies Inc., Essex Junction, Vt., USA). Then 300 μL of the pre-warmed (37° C.) FVIII-inhibited blood was recalcified with 20 μL of a 0.2 M CaCl2 solution. Clot formation was monitored using a ROTEM instrument (Pentapharm Munich, Germany) at 37° C. The final assay concentration of rTF was 44 fM. The ROTEM recording was started immediately and measured for at least 120 min. Each blood sample was analyzed in two independent measurements.
The thromboelastographic parameters of clotting time (CT), clot formation time (CFT) and maximum clot firmness (MCF) were recorded in accordance with the manufacturer's instructions. The first derivative of the thromboelastogram data is plotted to obtain a graph of velocity (mm/s) against time (s). From this graph, the maximum velocity (maxV) and the time at which the maximum velocity is reached (maxV-t) are also determined.

[5] = system: contact pathway; experiment: CAT in normal plasma with and without CTI; assay type: biochemical; conditions: for concentration activating the contact pathway: normal plasma, 1 pM hTF, 4 μM PL, ±41 μg/mL CTI

Molecule: 6-carboxyicodextrin [reference compound]
procoagulant activity (in words) [1]: not procoagulant

Molecule: Maltopentaose
procoagulant activity (in words) [1]: substantial procoagulant activity
EC50 ([1]; 1 pM hTF, 4 μM PL): about 2 μg/mL
EC50 ([1]; 1 pM hTF, 4 μM PL, listed as maltopentose): 2.1 µg/mL

Molecule: Maltotetraose
procoagulant activity (in words) [1]: substantial procoagulant activity
EC50 ([1]; 1 pM hTF, 4 μM PL): 5.0 µg/mL

Molecule: Maltotriose
EC50 ([1]; 1 pM hTF, 4 μM PL): 20.6 µg/mL

Molecule: icodextrin [unsulfated icodextrin, reference compound]
procoagulant activity (in words) [1]: not procoagulant

Molecule: sulfated 6-carboxy-icodextrin [6-carboxy-Icodextrin (unfractionated, batch 2)]
EC50 ([1]; 1 pM hTF, 4 μM PL, listed as sulfated 6-carboxyicodextrin (35 kDa, 10.1% S)): 0.07 µg/mL
procoagulant activity (in words) ([1]; listed as sulfated 6-carboxyicodextrin (35 kDa, 10.1% S)): procoagulant at very low concentrations
Ratio aPTT/CAT [2]: 57.0
50% Increase Clotting Time [2]: 4.0 µg/mL
restoration of coagulation (in words) ([4]; listed as sulfated 6-carboxy-icodextrin (35 kDa; 10.1% S)): restores coagulation in human FVIII-inhibited blood

Molecule: sulfated β-cyclodextrin [β-Cyclodextrin (Sigma)]
activation of the contact pathway (in words) [5]: No activation of the contact pathway
concentration activating the contact pathway [5]: > 33000 ng/mL
EC50 ([1]; 1 pM hTF, 4 μM PL): 1.8 µg/mL
EC50 ([1]; 1 pM hTF, 4 μM PL, listed as sulfated β-cyclodextrin): 0.7 µg/mL
EC50 ([1]; 1 pM hTF, 4 μM PL, listed as β-cyclodextrin): about 2 μg/mL
procoagulant activity (in words) ([1]; listed as sulfated β-cyclodextrin): good procoagulant activity
procoagulant activity (in words) ([1]; listed as β-cyclodextrin): substantial procoagulant activity
Ratio aPTT/CAT [2]: 5.1
anticoagulant activity (in words) [2]: become anticoagulant within their procoagulant window
50% Increase Clotting Time [2]: 3.6 µg/mL
reversal of the effect of rec. FL-TFPI (in words) [3]: reverses the effect of rec. FL-TFPI in plasma
EC50 TFPI-dPT [3]: 0.08 µg/mL
restoration of coagulation (in words) [4]: restore coagulation parameters of FVIII-inhibited whole blood
restoration of coagulation (in words) ([4]; listed as sulfated β-cyclodextrin (18.9% S)): restores coagulation to normal in FVIII-inhibited blood

Molecule: xylohexaose
EC50 ([1]; 1 pM hTF, 4 μM PL): 4.8 µg/mL

Molecule: α-cyclodextrin
procoagulant activity (in words) [1]: substantial procoagulant activity

Second part, led by results:

EC50 ([1]; 1 pM hTF, 4 μM PL): 13.5 µg/mL (≈ 26.8 µM)
Molecule: OC[C@H]1O[C@@](CO)(O[C@H]2O[C@H](CO)[C@@H](O)[C@H](O)[C@H]2O)[C@@H](O[C@H]2O[C@H](CO)[C@@H](O)[C@H](O)[C@H]2O)[C@@H]1O [melezitose]

EC50 ([1]; 1 pM hTF, 4 μM PL): 7.4 µg/mL (≈ 14.7 µM)
Molecule: OC[C@H]1O[C@H](OC[C@H]2O[C@H](O[C@]3(CO)O[C@H](CO)[C@@H](O)[C@@H]3O)[C@H](O)[C@@H](O)[C@@H]2O)[C@H](O)[C@@H](O)[C@H]1O [raffinose]

EC50 ([1]; 1 pM hTF, 4 μM PL): 1.9 µg/mL
Molecule: Cellopentaose
procoagulant activity (in words) [1]: substantial procoagulant activity

EC50 ([1]; 1 pM hTF, 4 μM PL): 4.8 µg/mL
Molecule: Cellotetraose

EC50 ([1]; 1 pM hTF, 4 μM PL): 30.9 µg/mL
Molecule: Cellotriose

EC50 ([1]; 1 pM hTF, 4 μM PL): 0.3 µg/mL
Molecule: Fucoidan [Fucoidan (Control), reference compound]
Ratio aPTT/CAT [2]: 23.3
50% Increase Clotting Time [2]: 7.0 µg/mL

EC50 ([1]; 1 pM hTF, 4 μM PL): 2.3 µg/mL
Molecule: stachyose
procoagulant activity (in words) [1]: substantial procoagulant activity

EC50 ([1]; 1 pM hTF, 4 μM PL, listed as sulfated 6-carboxyicodextrin (21.6 kDa, 10.6% S)): 0.04 µg/mL
EC50 TFPI-dPT [3]: 0.26 µg/mL
Molecule: sulfated 6-carboxy-icodextrin [6-carboxy-Icodextrin (unfractionated, batch 1)]
procoagulant activity (in words) ([1]; listed as sulfated 6-carboxyicodextrin (21.6 kDa, 10.6% S)): procoagulant at very low concentrations
Ratio aPTT/CAT [2]: 80.0
anticoagulant activity (in words) [2]: non-anticoagulant at its optimal procoagulant concentration
50% Increase Clotting Time [2]: 3.2 µg/mL
reversal of the effect of rec. FL-TFPI (in words) ([3]; listed as sulfated 6-carboxy-icodextrin (21.6 kDa, 10.6% S)): reverses the effect of rec. FL-TFPI in plasma

activation of the contact pathway (in words) [5]: No activation of the contact pathway
concentration activating the contact pathway [5]: > 33000 ng/mL
EC50 ([1]; 1 pM hTF, 4 μM PL): 2.4 µg/mL
EC50 TFPI-dPT [3]: 0.15 µg/mL
Molecule: sulfated maltopentaose [Maltopentaose (Baxter)]
procoagulant activity (in words) [1]: good procoagulant activity
Ratio aPTT/CAT [2]: 1.4
anticoagulant activity (in words) [2]: become anticoagulant within their procoagulant window
50% Increase Clotting Time [2]: 3.3 µg/mL
reversal of the effect of rec. FL-TFPI (in words) ([3]; listed as sulfated maltopentaose (15% S)): reverses the effect of rec. FL-TFPI in plasma; also recorded: reverses the effect of recombinant Full Length-Tissue Factor Pathway Inhibitor
restoration of coagulation (in words) [4]: restore coagulation parameters of FVIII-inhibited whole blood
restoration of coagulation (in words) ([4]; listed as sulfated maltopentose (15% S)): restores coagulation to normal in FVIII-inhibited blood

EC50 ([1]; 1 pM hTF, 4 μM PL): 0.1 µg/mL
Molecule: sulfated xylan [sulfated xylan (14.7% S, 22 kD)]
procoagulant activity (in words) [1]: procoagulant at low concentrations
procoagulant at (concentration) ([1]; 37° C., 1 pM hTF, 4 μM PL): about 0.01 μg/mL
procoagulant activity (in words) ([1]; listed as Sulfated xylan): good procoagulant activity in CAT assays at very low concentrations
